# Starred links: 1 amine or outer side, 2 acyl side, 3 side chain; linkers in the order of their positions; H or OH if unused. Non-standard residues stand in square brackets, D forms with d. Residues, ends and D or L forms follow the SMILES beside them. Groups on a side chain read outwards from the residue. *: point of attachment. C18 diacid = O=C(O)CCCCCCCCCCCCCCCCC(=O)*; γGlu = O=C(O)[C@H](CCC(=O)[*:2])N[*:1]; Ac4c = NC1(C(=O)O)CCC1; AEEA = NCCOCCOCC(=O)O; Aib = CC(C)(N)C(=O)O
# How the values were obtained:
# [1] = molecular target: T1, human GLP-1 receptor (Homo sapiens, UniProt P43220); test: Assay (I)(a) GLP-1 receptor activation, CRE luciferase reporter gene assay in BHK cells; format: cell-based; conditions: without presence of serum albumin; read-out: GLP-1R EC50 (pM) [Assay (I)(a)]
# T1 construct: expressed in transfected cells; host or cells: membranes of BHK cells (parent BHKTS13), clone FCW467-12A
# Experimental: The purpose of this example was to test the activity or potency, of the glucagon derivatives of the invention, in vitro. The in vitro potency is the measure of human GLP-1 receptor (GLP-1R) or glucagon receptor (glucagonR) activation, respectively, in a whole cell assay. In vitro potency was determined by measuring the response of human GLP-1 or glucagon receptor, respectively, in a reporter gene assay. The assay was performed in a stably transfected BHK cell line that expresses either the human GLP-1 receptor or the human glucagon receptor and contains the DNA for the cAMP response element (CRE) coupled to a promoter and the gene for firefly luciferase (CRE luciferase). […] When assay incubation was completed, the luciferase substrate (luciferin) was added and the enzyme converted luciferin to oxyluciferin and produces bioluminescence. The luminescence was measured as the readout for the assay. The cells used in this assay (clone FCW467-12A/KZ10-1) were BHK cells with BHKTS13 as a parent cell line. The cells were derived from a clone (FCW467-12A) that expresses the human GLP-1 receptor and were established by further transfection with CRE luciferase to obtain the current clone. The cells were cultured at 5% CO2 in DMEM medium with 10% FBS, 1×GlutaMAX, 1 mg/ml G418, 240 nM MTX (methotrexate) and 1% pen/strep (penicillin/streptomycin). They were aliquoted and stored in liquid nitrogen. Before each assay, an aliquot was taken up and washed three times in PBS before being suspended at the desired concentration in assay medium. For 96-well plates the suspension was made to give a final concentration of 5×10EE3 cells/well. The following chemicals were used in the assay: Pluronic F-68 (10%) (Gibco 2404), ovalbumin (Sigma A5503), DMEM w/o phenol red (Gibco 11880-028), 1 M Hepes (Gibco 15630), Glutamax 100× (Gibco 35050) and steadylite plus (PerkinElmer 6016757). Assay Medium consisted of DMEM w/o phenol red, 10 mM Hepes, 1× GlutaMAX, 2% Ovalbumin and 0.2% Pluronic F-68. Cell stocks were thawed in a 37° C. water bath. Cells were washed three times in PBS. The cells were counted and adjusted to 5×10EE3 cells/50 μl (1×10EE5 cells/ml) in Assay Medium. A 50 μl aliquot of cells was transferred to each well in the assay plate. Stocks of the test compounds and reference compounds were diluted to a concentration of […] in Assay Medium. Compounds were diluted 10-fold to give the following concentrations: 2×10EE-6 M, 2×10EE-7 M, 2×10EE-8 M; 2×10EE-9 M, 2×10EE-10 M, 2×10EE-11 M, 2×10EE-12 M and 2×10EE-13 M. For each compound a blank assay medium control was also included. A 50 μl aliquot of compound or blank was transferred from the dilution plate to the assay plate. Compounds were tested at the following final concentrations: 1×10EE-6 M, 1×10EE-7 M, 1×10EE-8 M; 1×10EE-9 M, 1×10EE-10 M, 1×10EE-11 M and 1×10EE-12 M and 1×10EE-13 M. The assay plate was incubated for 3 h in a 5% CO2 incubator at 37° C. The assay plate was removed from the incubator and allowed to stand at room temperature for 15 min. A 100 μl aliquot of steadylite plus reagent was added to each well of the assay plate (reagent is light sensitive). Each assay plate was covered with aluminum foil to protect it from light and shaken for 30 min at room temperature. Each assay plate was read in a Perkin Elmer TopCount NXT instrument. The data from the TopCount instrument was transferred to GraphPad Prism software. The software performed a non-linear regression (log(agonist) vs response-Variable slope (four parameter)). EC50 values were calculated by the software and reported in pM.
# [2] = molecular target: T1, human GLP-1 receptor; test: Assay (II)(a) GLP-1 receptor binding, 125I-GLP-1 displacement SPA on BHK membranes; conditions: without presence of serum albumin; read-out: GLP-1R IC50 (nM) [Assay (II)(a)]
# Procedure, shortened: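 Membranes from BHK cells (clone FCW467-12A) stably expressing human GLP-1R were incubated with serially diluted compounds (8×10EE-13 to 8×10EE-7 M before addition) and [125I]-GLP-1-(7-36)NH2 with WGA SPA beads, 2 h at 30° C, pH 7.4. IC50 taken from displacement by non-linear regression. Run at ≤0.001% or 2.0% final serum albumin.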
# T1 sequence (P43220 24-463): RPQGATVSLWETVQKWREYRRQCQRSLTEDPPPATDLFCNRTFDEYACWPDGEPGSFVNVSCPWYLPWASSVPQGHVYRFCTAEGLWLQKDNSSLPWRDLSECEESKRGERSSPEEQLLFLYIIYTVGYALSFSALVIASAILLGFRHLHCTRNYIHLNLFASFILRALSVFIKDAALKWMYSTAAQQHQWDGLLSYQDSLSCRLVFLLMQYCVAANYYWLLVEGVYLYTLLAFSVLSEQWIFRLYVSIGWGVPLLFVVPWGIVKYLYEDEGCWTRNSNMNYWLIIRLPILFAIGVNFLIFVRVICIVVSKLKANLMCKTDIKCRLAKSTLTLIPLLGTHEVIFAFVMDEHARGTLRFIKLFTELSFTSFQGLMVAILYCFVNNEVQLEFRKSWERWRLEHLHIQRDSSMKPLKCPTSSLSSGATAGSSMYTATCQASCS
SMILES,EC50 [1] [pM],IC50 [2] [nM]
"CC[C@H](C)[C@H](NC(=O)[C@H](CC(C)C)NC(=O)[C@H](Cc1c[nH]c2ccccc12)NC(=O)[C@H](CCC(N)=O)NC(=O)[C@@H](NC(=O)[C@H](Cc1ccccc1)NC(=O)[C@H](CCC(=O)O)NC(=O)[C@H](CCCNC(=N)N)NC(=O)[C@H](C)NC(=O)[C@H](CCCNC(=N)N)NC(=O)[C@H](CCCNC(=N)N)NC(=O)[C@H](CO)NC(=O)[C@H](CCC(=O)O)NC(=O)[C@H](CC(C)C)NC(=O)[C@H](Cc1ccc(O)cc1)NC(=O)[C@H](CCCCN)NC(=O)[C@H](CO)NC(=O)[C@H](CC(C)C)NC(=O)[C@H](CC(=O)O)NC(=O)[C@H](CO)NC(=O)[C@@H](NC(=O)[C@H](Cc1ccccc1)NC(=O)[C@@H](NC(=O)CNC(=O)[C@H](CCC(N)=O)NC(=O)C1(NC(=O)[C@@H](N)Cc2c[nH]cn2)CCC1)[C@@H](C)O)[C@@H](C)O)C(C)C)C(=O)N[C@@H](CCCCNC(=O)CC[C@H](NC(=O)CC[C@H](NC(=O)COCCOCCNC(=O)COCCOCCNC(=O)CC[C@H](NC(=O)CC[C@H](NC(=O)CCCCCCCCCCCCCCCCC(=O)O)C(=O)O)C(=O)O)C(=O)O)C(=O)O)C(=O)N[C@H](C(N)=O)[C@@H](C)O [Chem. 13, N^ε28-[(4S)-4-carboxy-4-[[(4S)-4-carboxy-4-[[2-[2 [2-[[2-[2-[2-[[(4S)-4-carboxy-4-[[(4S)-4-carboxy-4-(17-carboxyheptadecanoylamino)butanoyl]amino]butanoyl]amino]ethoxy]ethoxy]acetyl]amino]ethoxy]ethoxy]acetyl]amino]butanoyl]amino]butanoyl]-[Acb2,Leu10,Glu15,Arg20,Glu21,Ile27,Lys28]-Glucagon amide] (H-H[Ac4c]QGTFTSDLSKYLESRRAREFVQWLIK([γGlu-γGlu-AEEA-AEEA-γGlu-γGlu-C18 diacid])T-NH2)",4,0.1
"CC[C@H](C)[C@H](NC(=O)[C@H](CC(C)C)NC(=O)[C@H](Cc1c[nH]c2ccccc12)NC(=O)[C@H](CCC(N)=O)NC(=O)[C@@H](NC(=O)[C@H](Cc1ccccc1)NC(=O)[C@H](CC(=O)O)NC(=O)[C@H](CCC(N)=O)NC(=O)[C@H](C)NC(=O)[C@H](CCCNC(=N)N)NC(=O)[C@H](CCCNC(=N)N)NC(=O)[C@H](CO)NC(=O)[C@H](CCC(=O)O)NC(=O)[C@H](CC(C)C)NC(=O)[C@H](Cc1ccc(O)cc1)NC(=O)[C@H](CCCCN)NC(=O)[C@H](CO)NC(=O)[C@H](CC(C)C)NC(=O)[C@H](CC(=O)O)NC(=O)[C@H](CO)NC(=O)[C@@H](NC(=O)[C@H](Cc1ccccc1)NC(=O)[C@@H](NC(=O)CNC(=O)[C@H](CCC(N)=O)NC(=O)C(C)(C)NC(=O)[C@@H](N)Cc1c[nH]cn1)[C@@H](C)O)[C@@H](C)O)C(C)C)C(=O)N[C@@H](CCCCNC(=O)COCCOCCNC(=O)COCCOCCNC(=O)CC[C@H](NC(=O)CC[C@H](NC(=O)CC[C@H](NC(=O)CCCCCCCCCCCCCCCCC(=O)O)C(=O)O)C(=O)O)C(=O)O)C(=O)N[C@H](C(N)=O)[C@@H](C)O [Chem. 8, N^ε28-[2-[2-[2-[[2-[2-[2-[[(4S)-4-carboxy-4-[[(4S)-4-carboxy-4-[[(4S)-4-carboxy-4-(17-carboxyheptadecanoylamino)butanoyl]amino]butanoyl]amino]butanoyl]amino]ethoxy]ethoxy]acetyl]amino]ethoxy]ethoxy]acetyl]-[Aib2,Leu10,Glu15,Ile27,Lys28]-Glucagon amide] (H-H[Aib]QGTFTSDLSKYLESRRAQDFVQWLIK([AEEA-AEEA-γGlu-γGlu-γGlu-C18 diacid])T-NH2; N-terminus assumed)",7,0.1
"CC[C@H](C)[C@H](NC(=O)[C@H](CC(C)C)NC(=O)[C@H](Cc1c[nH]c2ccccc12)NC(=O)[C@H](CCC(N)=O)NC(=O)[C@@H](NC(=O)[C@H](Cc1ccccc1)NC(=O)[C@H](CCC(=O)O)NC(=O)[C@H](CCCNC(=N)N)NC(=O)[C@H](C)NC(=O)[C@H](CCCNC(=N)N)NC(=O)[C@H](CCCNC(=N)N)NC(=O)[C@H](C)NC(=O)[C@H](CC(=O)O)NC(=O)[C@H](CC(C)C)NC(=O)[C@H](Cc1ccc(O)cc1)NC(=O)[C@H](CCCCN)NC(=O)[C@H](CO)NC(=O)[C@H](CC(C)C)NC(=O)[C@H](CC(=O)O)NC(=O)[C@H](CO)NC(=O)[C@@H](NC(=O)[C@H](Cc1ccccc1)NC(=O)[C@@H](NC(=O)CNC(=O)[C@H](CCC(N)=O)NC(=O)C(C)(C)NC(=O)[C@@H](N)Cc1c[nH]cn1)[C@@H](C)O)[C@@H](C)O)C(C)C)C(=O)N[C@@H](CCCCNC(=O)COCCOCCNC(=O)COCCOCCNC(=O)CC[C@H](NC(=O)CC[C@H](NC(=O)CC[C@H](NC(=O)CCCCCCCCCCCCCCCCC(=O)O)C(=O)O)C(=O)O)C(=O)O)C(=O)N[C@H](C(N)=O)[C@@H](C)O [Chem. 6, N^ε28-[2-[2-[2-[[2-[2-[2-[[(4S)-4-carboxy-4-[[(4S)-4-carboxy-4-[[(4S)-4-carboxy-4-(17-carboxyheptadecanoylamino)butanoyl]amino]butanoyl]amino]butanoyl]amino]ethoxy]ethoxy]acetyl]amino]ethoxy]ethoxy]acetyl]-[Aib2,Leu10,Ala16,Arg20,Glu21,Ile27,Lys28]-Glucagon amide] (H-H[Aib]QGTFTSDLSKYLDARRAREFVQWLIK([AEEA-AEEA-γGlu-γGlu-γGlu-C18 diacid])T-NH2; N-terminus assumed)",5,0.1
"CC[C@H](C)[C@H](NC(=O)[C@H](CC(C)C)NC(=O)[C@H](Cc1c[nH]c2ccccc12)NC(=O)[C@H](CCCCNC(=O)COCCOCCNC(=O)COCCOCCNC(=O)CC[C@H](NC(=O)CC[C@H](NC(=O)CC[C@H](NC(=O)CCCCCCCCCCCCCCCCC(=O)O)C(=O)O)C(=O)O)C(=O)O)NC(=O)[C@@H](NC(=O)[C@H](Cc1ccccc1)NC(=O)[C@H](CCC(=O)O)NC(=O)[C@H](CCCNC(=N)N)NC(=O)[C@H](C)NC(=O)[C@H](CCCNC(=N)N)NC(=O)[C@H](CCCCN)NC(=O)[C@H](C)NC(=O)[C@H](CC(=O)O)NC(=O)[C@H](CC(C)C)NC(=O)[C@H](Cc1ccc(O)cc1)NC(=O)[C@H](CCCCN)NC(=O)[C@H](CO)NC(=O)[C@H](Cc1ccc(O)cc1)NC(=O)[C@H](CC(=O)O)NC(=O)[C@H](CO)NC(=O)[C@@H](NC(=O)[C@H](Cc1ccccc1)NC(=O)[C@@H](NC(=O)CNC(=O)[C@H](CCC(N)=O)NC(=O)C(C)(C)NC(=O)[C@@H](N)Cc1c[nH]cn1)[C@@H](C)O)[C@@H](C)O)C(C)C)C(=O)N[C@@H](CO)C(=O)N[C@H](C(N)=O)[C@@H](C)O [Chem. 2, N^ε24-[2-[2-[2-[[2-[2-[2-[[(4S)-4-carboxy-4-[[(4S)-4-carboxy-4-[[(4S)-4-carboxy-4-(17-carboxyheptadecanoylamino)butanoyl]amino]butanoyl]amino]butanoyl]amino]ethoxy]ethoxy]acetyl]amino]ethoxy]ethoxy]acetyl]-[Aib2,Ala16,Lys17,Arg20,Glu21,Lys24,Ile27,Ser28]-Glucagon amide] (H-H[Aib]QGTFTSDYSKYLDAKRAREFVK([AEEA-AEEA-γGlu-γGlu-γGlu-C18 diacid])WLIST-NH2; N-terminus assumed)",2,0.3

# — patent publication US10570184B2, “GLP-1/glucagon receptor co-agonists for medical use” (Novo Nordisk A/S, priority 2014, dated 2020)
